# Data taken from BindingDB's records for doi:10.1016/j.ejmech.2021.113585 (Fudan University, 2021).
# Test: Agonist activity at RORgammat in C57 mouse CD4+ T cells assessed as induction of Th17 cells differentiation by measuring increase in IL17 production measured after 4 days by flow cytometry analysis
row,SMILES,EC50
1,CC(=O)N1CCN(c2ccc3c(c2)CCN(S(=O)(=O)N(C)Cc2ccccc2Cl)C3)CC1,230 nM
2,CC(=O)N1CCN(c2ccc3c(c2)CCN(S(=O)(=O)N(C)Cc2c(F)cccc2Cl)C3)CC1,220 nM
3,CC(=O)N1CCN(c2ccc3c(c2)CCN(S(=O)(=O)N(C)Cc2ccccc2C(F)(F)F)C3)CC1,1120 nM
